Measured values published in US5686458A, “Quinazoline deriviates for treating peptic ulcer” (Yuhan Corporation, priority 1992, dated 1997).

Key:
[1] = biological target: T1, H^+ /K^+ ATPase (proton pump), gastric vesicles (Sus scrofa, UniProt P19156); test: Determination of H+/K+ ATPase activity, Lineweaver-Burk kinetics versus K+ (Experiment 4-2); format: biochemical, pig; settings: for Competitive inhibition with K+ at the K+ binding site of proton pump: Lineweaver-Burk plot, KCl 0.1 to 30 mM
T1 construct: Gastric vesicles were prepared from pig stomach; from tissue; host or cells: pig stomach, lyophilized gastric vesicles
T1 sequence (P19156 2-1034 limits assumed): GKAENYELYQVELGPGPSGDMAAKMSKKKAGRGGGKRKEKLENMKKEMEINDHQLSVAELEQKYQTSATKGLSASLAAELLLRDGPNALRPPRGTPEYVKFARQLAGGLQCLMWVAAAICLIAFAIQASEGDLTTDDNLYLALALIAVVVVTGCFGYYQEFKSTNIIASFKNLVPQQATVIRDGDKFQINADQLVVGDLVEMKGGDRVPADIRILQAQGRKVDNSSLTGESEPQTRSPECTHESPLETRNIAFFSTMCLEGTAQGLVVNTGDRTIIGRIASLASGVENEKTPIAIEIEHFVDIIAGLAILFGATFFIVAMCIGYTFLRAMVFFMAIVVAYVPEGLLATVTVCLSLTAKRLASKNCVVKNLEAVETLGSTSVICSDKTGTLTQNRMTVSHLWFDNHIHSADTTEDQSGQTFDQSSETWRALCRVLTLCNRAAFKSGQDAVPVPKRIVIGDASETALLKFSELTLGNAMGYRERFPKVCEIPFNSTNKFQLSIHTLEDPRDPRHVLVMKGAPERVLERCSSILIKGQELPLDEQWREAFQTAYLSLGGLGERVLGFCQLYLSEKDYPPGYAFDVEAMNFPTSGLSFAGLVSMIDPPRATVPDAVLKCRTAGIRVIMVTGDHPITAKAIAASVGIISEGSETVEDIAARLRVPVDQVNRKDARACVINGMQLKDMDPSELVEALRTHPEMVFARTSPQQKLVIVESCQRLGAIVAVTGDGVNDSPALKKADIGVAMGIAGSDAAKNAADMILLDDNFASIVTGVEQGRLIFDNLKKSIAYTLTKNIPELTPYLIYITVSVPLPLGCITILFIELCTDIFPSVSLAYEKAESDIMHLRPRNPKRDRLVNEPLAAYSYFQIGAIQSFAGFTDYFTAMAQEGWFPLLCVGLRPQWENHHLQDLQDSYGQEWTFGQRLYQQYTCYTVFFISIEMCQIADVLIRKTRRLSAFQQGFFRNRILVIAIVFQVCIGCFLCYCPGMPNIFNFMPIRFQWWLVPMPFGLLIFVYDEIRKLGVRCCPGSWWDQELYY
T1 sequence (P18434 whole entry partner): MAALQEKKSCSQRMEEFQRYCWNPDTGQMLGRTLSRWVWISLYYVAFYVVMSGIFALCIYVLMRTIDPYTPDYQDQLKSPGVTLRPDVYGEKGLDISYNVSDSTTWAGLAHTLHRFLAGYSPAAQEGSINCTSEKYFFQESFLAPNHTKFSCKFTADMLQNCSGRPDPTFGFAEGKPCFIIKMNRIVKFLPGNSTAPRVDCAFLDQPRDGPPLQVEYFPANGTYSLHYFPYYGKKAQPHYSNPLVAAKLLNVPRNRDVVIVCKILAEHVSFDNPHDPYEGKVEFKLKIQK
Method: Gastric vesicles were prepared from pig stomach by the method described in Saccomani G., et al., J. Biol. Chem. 250, 4802-4809 (1975). The vesicles were lyophilized and kept at -70° C. The protein content was determined by the method of Lowry et al., using bovine serum albumin as standard[see Lowry, O. H., Rosebrough, N. J. and Randall, R. J., J. Biol. Chem. 193, 265-275 (1951)].
Test tubes were divided into 4 groups, each having 3 test tubes. As a control group, group 1 was added with the 10 μl of DMSO. Groups 2, 3 and 4 were administered with the compound prepared in example 34 whose final concentration are 0.17 μM, 0.33 μM and 0.67 μM, respectively. Each group was further divided into 3 small groups, in which enzymes were activated by ATP; ATP and Mg^++; and ATP, Mg^++ and K^+, respectively.
To all of the test tubes, were added 100 μl of lyophilized vesicles prepared at the concentration of 25 μg protein/ml and then 90 μl of 5 mM Pipes/Tris buffer pH 7.0. The compound prepared in Example 34 was added to each Group until the final concentration thereof became 0.17, 0.33 or 0.67 μM, respectively, They were preincubated for 15 minutes.
50 μl of ATP(3 mM) was added to each of the four Groups and the 50 μl of MgCl2 (2 mM) was added only to the 2nd and 3rd small groups of all Groups. Further, to the 3rd small groups of all Groups, were added 50 μl of KCl solution of various concentrations(from 0.1 mM to 30 mM) and then 150μl of Pipes/Tris buffer of pH 7.0. To the rest small groups, Pipes/Tris buffer of pH 7.0 was added until the volume became the same as that of the 3rd small group.
The test tube's were incubated at 37° C. for 30 minutes and then the reaction was terminated by adding 25% cold trichloroacetic acid solution. They were centrifuged by means of a microcentrifuge and the supernatant was taken up for the measurement of the released inorganic phosphate content by an automatic analyzer(CIBA CORNING, Express 550).
In accordance with the same procedures as above, except that 15 and 30 μm of omeprazole and 0.75, 1.5 and 3.0 μm of SK&F96067 were used as comparative substances, released inorganic phosphate content was measured.
The released inorganic phosphate contents of the three small groups were considered as the activity of H^+ /K^+ ATPase at each of the concentrations employed. The specific activity of H^+ /K^+ ATPase was calculated from the following equation:
Specific activity=(A-C)-(B-C) . . . (V)
A is the activity of enzyme activated by ATP, Mg^++ and , K^+ ;
B is the activity of enzyme activated by ATP and M^++ and
C is the activity of enzyme activated by ATP.
The specific activity, thus calculated, of Groups 1, 2, 3 and 4 which employed DMSO and the compound of Example 34 at 3 different concentrations were then plotted with respect to the concentration of KCl in FIG. 1 according to the method of Lineweaver-Burk, wherein .box-solid., .quadrature. and .largecircle. represent the respective concentrations of the compound of Example 34 of 0.67 μM, 0.33 μM and 0.17 μM; and .oval-solid. represents concentration of the DMSO compound. FIG. 2 depicts the Lineweaver-Burk plot of the specific activities obtained from SK&F96067, wherein .box-solid., .quadrature. and .largecircle. represent its respective concentrations of 3.0 μM, 1.5 μM, 0.75 μM; and .oval-solid. represents concentration of the DMSO compound. FIG. 3 illustrates the Lineweaver-Burk plot of the specific activities obtained from omeprazole, wherein .oval-solid. and .quadrature. represent its concentrations of 15 μM and 30 μM; and .largecircle. represents the concentration of DMSO.

gastric secretion = test: Inhibition of Gastric Secretion, pylorus-ligated rats (Experiment 2); format: in vivo, Sprague-Dawley rats; settings: relative to omeprazole (equation III), 20 mg/kg intraduodenally, pylorus-ligated rats, 5 hours
How it was run: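 Sprague-Dawley rats (170±10 g, n=5/group), fasted 24 h, pylorus-ligated under ether; compounds given intraduodenally at 20 mg/kg in 30% aqueous PEG 400. Gastric juice collected after 5 h, volume and acidity measured; relative volume, acid concentration and acid output computed versus vehicle and omeprazole groups.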

[2] = system: gastric secretion stimulated by pentagastrin; test: Inhibition of gastric secretion stimulated by pentagastrin (Experiment 3-2); format: in vivo, Sprague-Dawley male rats; settings: intravenous; for ED50: Rattus norvegicus
Method: The same procedures as in Experiment 3-1 were carried out, except that as a secretion stimulating substance, pentagastrin was infused into the left jugular vein of the rats at a dosage of 24 μg/2 ml/200 g/hr.

proton pump = settings: background statement; cited from earlier work

Row | Compound | Competitive inhibition with K+ at the K+ binding site of proton pump [1] | Ki ([1]; Lineweaver-Burk, versus K+, pH 7.0) [nM] | Relative Acid Output (gastric secretion) | The gastric secretion inhibition ([2]; 1.0 mg/kg) [%] | The gastric secretion inhibition ([2]; 3.0 mg/kg) [%] | The gastric secretion inhibition ([2]; 5.0 mg/kg) [%] | ED50 [2] [mg/kg] | Inhibition overcome by increasing the concentration of KCl ([1]; 15 and 30 μM) | Reaction speed in comparison with the control values ([1]; 15 and 30 μM) | Reversibility of the proton pump inhibition (proton pump) | The gastric secretion inhibition ([2]; 0.3 mg/kg) [%] | The gastric secretion inhibition ([2]; 0.5 mg/kg) [%]
1 | COc1cccc2c(N3CCc4ccccc4C3C)nc(Nc3ccc(F)cc3C)nc12.Cl (stereo not drawn) [Example 34, 8-Methoxy-2-(4-Fluoro-2-Methyl-Phenylamino)-4-(1-Methyl-1,2,3,4-Tetrahydroisoquinoline-2-Yl)Quinazoline Hydrochloride] | inhibited competitively with K^+ | 40 | 0.97 | 41.2 | 77.0 | 110.2 | 1.31 |  |  |  |  | 
2 | COc1ccc2[nH]c([S+]([O-])Cc3ncc(C)c(OC)c3C)nc2c1 (stereo not drawn) [Omeprazole, omeprazole, reference compound] | did not inhibit competitively |  |  | 114.3 |  |  | 0.47 | not overcome by increasing the concentration of KCl | greatly reduced | irreversible | 5.0 | 63.1
